From patent publication US20260217703A1, “INHIBITORS OF a-HEMOL YSIN OF STAPHYLOCOCCUS AUREUS” (HELMHOLTZ-ZENTRUM FÜR INFEKTIONSFORSCHUNG GMBH, priority 2022, published 2026)

Columns and labels:
[1] = biological target: S. aureus Alpha hemolysin (Staphylococcus aureus, UniProt P09616); assay: cell-based
[2] = biological target: hemolysin alpha from Staphylococcus aureus (Staphylococcus aureus, UniProt P09616); assay: cell-based
Chain of hemolysin alpha from Staphylococcus aureus (P09616 27-319 limits assumed): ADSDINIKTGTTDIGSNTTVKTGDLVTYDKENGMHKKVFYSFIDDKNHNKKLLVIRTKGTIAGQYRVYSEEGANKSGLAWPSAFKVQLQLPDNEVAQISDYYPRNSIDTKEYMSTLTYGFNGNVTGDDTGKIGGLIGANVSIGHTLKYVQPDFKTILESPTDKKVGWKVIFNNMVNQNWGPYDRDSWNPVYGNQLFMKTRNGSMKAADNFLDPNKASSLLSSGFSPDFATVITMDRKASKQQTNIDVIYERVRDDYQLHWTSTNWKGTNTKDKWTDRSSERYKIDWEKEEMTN

Chain of S. aureus Alpha hemolysin (P09616 27-319 limits assumed): as above

| SMILES | IC50 [1] [nM] | IC50 [2] [nM] |
| --- | --- | --- |
| Cc1cc2[nH]c(=O)c(=O)[nH]c2nc1S(=O)(=O)Nc1ccc(-c2ccc(F)cc2)c(Cl)c1 [Compound 9, N-(2-chloro-4′-fluoro-[1,1′-biphenyl]-4-yl)-7-methyl-2,3-dioxo-1,2,3,4-tetrahydropyrido[2,3-b]pyrazine-6-sulfonamide] | 100 to 1000 | < 30 |
| Cc1cc2[nH]c(=O)c(=O)[nH]c2nc1S(=O)(=O)Nc1ccc(-c2ccc(F)c(Cl)c2)c(Cl)c1 [Compound 10, N-(2,3′-dichloro-4′-fluoro-[1,1′-biphenyl]-4-yl)-7-methyl-2,3-dioxo-1,2,3,4-tetrahydropyrido[2,3-b]pyrazine-6-sulfonamide] | 1000 to 6000 | 30 to 100 |
| Cc1cc2[nH]c(=O)c(=O)[nH]c2nc1S(=O)(=O)Nc1ccc(-c2cncc(Cl)c2)c(Cl)c1 [Compound 11, N-(3-chloro-4-(5-chloropyridin-3-yl)phenyl)-7-methyl-2,3-dioxo-1,2,3,4-tetrahydropyrido[2,3-b]pyrazine-6-sulfonamide] | 100 to 1000 | 100 to 1000 |
| Cc1cc2[nH]c(=O)c(=O)[nH]c2nc1S(=O)(=O)Nc1cnc(-c2ccc(F)cc2)c(Cl)c1 [Compound 12, N-(5-chloro-6-(4-fluorophenyl)pyridin-3-yl)-7-methyl-2,3-dioxo-1,2,3,4-tetrahydropyrido[2,3-b]pyrazine-6-sulfonamide] | 1000 to 6000 | 30 to 100 |
| Cc1cc2[nH]c(=O)c(=O)[nH]c2nc1S(=O)(=O)Nc1cnc(-c2cncc(Cl)c2)c(Cl)c1 [Compound 13, N-(3,5′-dichloro-[2,3′-bipyridin]-5-yl)-7-methyl-2,3-dioxo-1,2,3,4-tetrahydropyrido[2,3-b]pyrazine-6-sulfonamide] | – | 1000 to 3500 |
| COc1ccc(-c2ccc(NS(=O)(=O)c3nc4[nH]c(=O)c(=O)[nH]c4cc3C)cc2Cl)cc1F [Compound 14, N-(2-chloro-3′-fluoro-4′-methoxy-[1,1′-biphenyl]-4-yl)-7-methyl-2,3-dioxo-1,2,3,4-tetrahydropyrido[2,3-b]pyrazine-6-sulfonamide] | 100 to 1000 | 30 to 100 |
| Cc1nc2cc(-c3ccc(NS(=O)(=O)c4nc5[nH]c(=O)c(=O)[nH]c5cc4C)cc3Cl)ccc2o1 [Compound 15, N-(3-chloro-4-(2-methylbenzo[d]oxazol-5-yl)phenyl)-7-methyl-2,3-dioxo-1,2,3,4-tetrahydropyrido[2,3-b]pyrazine-6-sulfonamide] | 30 to 100 | < 30 |
| Cc1cc2[nH]c(=O)c(=O)[nH]c2nc1S(=O)(=O)Nc1ccc(-c2ccc3cc[nH]c3c2)c(Cl)c1 [Compound 16, N-(3-chloro-4-(1H-indol-6-yl)phenyl)-7-methyl-2,3-dioxo-1,2,3,4-tetrahydropyrido[2,3-b]pyrazine-6-sulfonamide] | 100 to 1000 | < 30 |
| Cc1cc2[nH]c(=O)c(=O)[nH]c2nc1S(=O)(=O)Nc1ccc(-c2ccc(C#N)cc2)c(Cl)c1 [Compound 17, N-(2-chloro-4′-cyano-[1,1′-biphenyl]-4-yl)-7-methyl-2,3-dioxo-1,2,3,4-tetrahydropyrido[2,3-b]pyrazine-6-sulfonamide] | 100 to 1000 | 30 to 100 |
| Cc1cc(NS(=O)(=O)c2nc3[nH]c(=O)c(=O)[nH]c3cc2C)ccc1Br [Compound 18, N-(4-bromo-3-methylphenyl)-7-methyl-2,3-dioxo-1,2,3,4-tetrahydropyrido[2,3-b]pyrazine-6-sulfonamide] | 100 to 1000 | 100 to 1000 |
| Cc1cc2[nH]c(=O)c(=O)[nH]c2nc1S(=O)(=O)Nc1ccc(C(C)C)cc1 [Compound 19, N-(4-isopropylphenyl)-7-methyl-2,3-dioxo-1,2,3,4-tetrahydropyrido[2,3-b]pyrazine-6-sulfonamide] | 100 to 1000 | 100 to 1000 |
| Cc1cc2[nH]c(=O)c(=O)[nH]c2nc1S(=O)(=O)Nc1ccc(C2=CCCCC2)cc1 [Compound 20, 7-methyl-2,3-dioxo-N-(2′,3′,4′,5′-tetrahydro-[1,1′-biphenyl]-4-yl)-1,2,3,4-tetrahydropyrido[2,3-b]pyrazine-6-sulfonamide] | 100 to 1000 | 100 to 1000 |
| Cc1cc2[nH]c(=O)c(=O)[nH]c2nc1S(=O)(=O)Nc1ccc(C2CCC2)cc1 [Compound 21, N-(4-cyclobutylphenyl)-7-methyl-2,3-dioxo-1,2,3,4-tetrahydropyrido[2,3-b]pyrazine-6-sulfonamide] | 30 to 100 | < 30 |
| Cc1cc2[nH]c(=O)c(=O)[nH]c2nc1S(=O)(=O)Nc1ccc(OC(F)(F)F)cc1 [Compound 22, 7-methyl-2,3-dioxo-N-(4-(trifluoromethoxy)phenyl)-1,2,3,4-tetrahydropyrido[2,3-b]pyrazine-6-sulfonamide] | < 30 | < 30 |
| Cc1cc2[nH]c(=O)c(=O)[nH]c2nc1S(=O)(=O)Nc1ccc(C23CC(C2)C3)cc1 [Compound 23, N-(4-(bicyclo[1.1.1]pentan-1-yl)phenyl)-7-methyl-2,3-dioxo-1,2,3,4-tetrahydropyrido[2,3-b]pyrazine-6-sulfonamide] | 100 to 1000 | < 30 |
| Cc1cc2[nH]c(=O)c(=O)[nH]c2nc1S(=O)(=O)Nc1ccc2ccccc2c1 [Compound 24, 7-methyl-N-(naphthalen-2-yl)-2,3-dioxo-1,2,3,4-tetrahydropyrido[2,3-b]pyrazine-6-sulfonamide] | 100 to 1000 | 100 to 1000 |
| O=c1[nH]c2cc(Br)c(S(=O)(=O)Nc3ccc(OC(F)(F)F)cc3)nc2[nH]c1=O [Compound 25, 7-bromo-2,3-dioxo-N-(4-(trifluoromethoxy)phenyl)-1,2,3,4-tetrahydropyrido[2,3-b]pyrazine-6-sulfonamide] | 100 to 1000 | 30 to 100 |
| O=c1[nH]c2ccc(S(=O)(=O)Nc3ccc(OC(F)(F)F)cc3)nc2[nH]c1=O [Compound 26, 2,3-dioxo-N-(4-(trifluoromethoxy)phenyl)-1,2,3,4-tetrahydropyrido[2,3-b]pyrazine-6-sulfonamide] | 100 to 1000 | 100 to 1000 |
| C=C(C)c1cc2[nH]c(=O)c(=O)[nH]c2nc1S(=O)(=O)Nc1ccc(OC(F)(F)F)cc1 [Compound 27, 2,3-dioxo-7-(prop-1-en-2-yl)-N-(4-(trifluoromethoxy)phenyl)-1,2,3,4-tetrahydropyrido[2,3-b]pyrazine-6-sulfonamide] | < 30 | < 30 |
| Cc1nc2ccc(-c3ccc(NS(=O)(=O)c4ccc5[nH]c(=O)c(=O)[nH]c5n4)cc3Cl)cc2o1 [Compound 28, N-(3-chloro-4-(2-methylbenzo[d]oxazol-6-yl)phenyl)-2,3-dioxo-1,2,3,4-tetrahydropyrido[2,3-b]pyrazine-6-sulfonamide] | 100 to 1000 | < 30 |
| O=c1[nH]c2ccc(S(=O)(=O)Nc3ccc(-c4ccc(F)cc4)c(Cl)c3)nc2[nH]c1=O [Compound 29, N-(2-chloro-4′-fluoro-[1,1′-biphenyl]-4-yl)-2,3-dioxo-1,2,3,4-tetrahydropyrido[2,3-b]pyrazine-6-sulfonamide] | 1000 to 6000 | 100 to 1000 |
| Cc1nc2ccc(-c3ccc(NS(=O)(=O)c4ccc5[nH]c(=O)c(=O)[nH]c5n4)cc3Cl)cc2[nH]1 [Compound 30, N-(3-chloro-4-(2-methyl-1H-benzo[d]imidazol-6-yl)phenyl)-2,3-dioxo-1,2,3,4-tetrahydropyrido[2,3-b]pyrazine-6-sulfonamide] | – | 1000 to 3500 |
| Cc1nc2cc(-c3ncc(NS(=O)(=O)c4ccc5[nH]c(=O)c(=O)[nH]c5n4)cc3Cl)ccc2o1 [Compound 31, N-(5-chloro-6-(2-methylbenzo[d]oxazol-5-yl)pyridin-3-yl)-2,3-dioxo-1,2,3,4-tetrahydropyrido[2,3-b]pyrazine-6-sulfonamide] | 1000 to 6000 | 100 to 1000 |
| Cc1cc2[nH]c(=O)c(=O)[nH]c2nc1S(=O)(=O)Nc1ccc(-c2ccc(F)cc2)c(C(F)(F)F)c1 [Compound 32, N-(4′-fluoro-2-(trifluoromethyl)-[1,1′-biphenyl]-4-yl)-7-methyl-2,3-dioxo-1,2,3,4-tetrahydropyrido[2,3-b]pyrazine-6-sulfonamide] | 100 to 1000 | 100 to 1000 |
| Cc1cc(NS(=O)(=O)c2nc3[nH]c(=O)c(=O)[nH]c3cc2C)ccc1-c1ccc(F)cc1 [Compound 33, N-(4′-fluoro-2-methyl-[1,1′-biphenyl]-4-yl)-7-methyl-2,3-dioxo-1,2,3,4-tetrahydropyrido[2,3-b]pyrazine-6-sulfonamide] | 30 to 100 | 100 to 1000 |
| CC(C)c1cc2[nH]c(=O)c(=O)[nH]c2nc1S(=O)(=O)Nc1ccc(OC(F)(F)F)cc1 [Compound 34, 7-isopropyl-2,3-dioxo-N-(4-(trifluoromethoxy)phenyl)-1,2,3,4-tetrahydropyrido[2,3-b]pyrazine-6-sulfonamide] | 100 to 1000 | 30 to 100 |
| Cc1nc2cc(-c3ncc(NS(=O)(=O)c4nc5[nH]c(=O)c(=O)[nH]c5cc4C)cc3Cl)ccc2o1 [Compound 35, N-(5-chloro-6-(2-methylbenzo[d]oxazol-5-yl)pyridin-3-yl)-7-methyl-2,3-dioxo-1,2,3,4-tetrahydropyrido[2,3-b]pyrazine-6-sulfonamide] | 100 to 1000 | < 30 |
| Cc1cc2[nH]c(=O)c(=O)[nH]c2nc1S(=O)(=O)Nc1cnc(-c2ccc3c(c2)NC(=O)CO3)c(Cl)c1 [Compound 36, N-(5-chloro-6-(3-oxo-3,4-dihydro-2H-benzo[b][1,4]oxazin-6-yl)pyridin-3-yl)-7-methyl-2,3-dioxo-1,2,3,4-tetrahydropyrido[2,3-b]pyrazine-6-sulfonamide] | 1000 to 6000 | 30 to 100 |
| Cc1cc2[nH]c(=O)c(=O)[nH]c2nc1S(=O)(=O)Nc1ccc(-c2ccc3oc(C(C)C)nc3c2)c(Cl)c1 [Compound 37, N-(3-chloro-4-(2-isopropylbenzo[d]oxazol-5-yl)phenyl)-7-methyl-2,3-dioxo-1,2,3,4-tetrahydropyrido[2,3-b]pyrazine-6-sulfonamide] | 100 to 1000 | < 30 |
| Cc1nc2cc(-c3ccc(NS(=O)(=O)c4nc5[nH]c(=O)c(=O)[nH]c5cc4C)cc3C(F)(F)F)ccc2o1 [Compound 38, 7-methyl-N-(4-(2-methylbenzo[d]oxazol-5-yl)-3-(trifluoromethyl)phenyl)-2,3-dioxo-1,2,3,4-tetrahydropyrido[2,3-b]pyrazine-6-sulfonamide] | 100 to 1000 | < 30 |
